Columns and labels:
Assay type in all cases: functional
NCI-H460 = assay: Growth inhibition of human NCI-H460 cells assessed as cell growth at 10^-7 M incubated for 48 hrs by sulforhodamine B assay relative to control; details: NCI-H460, 48 h, read-out: Activity
SNB-75 = assay: Growth inhibition of human SNB75 cells assessed as cell growth at 10^-8 M incubated for 48 hrs by sulforhodamine B assay relative to control; details: SNB-75, 48 h, read-out: Activity
SF-295 = assay: Growth inhibition of human SF295 cells assessed as cell growth at 10^-6 M incubated for 48 hrs by sulforhodamine B assay relative to control; details: SF-295, 48 h, read-out: Activity
ACHN [1] = assay: Growth inhibition of human ACHN cells assessed as cell growth at 10^-8 M incubated for 48 hrs by sulforhodamine B assay relative to control; details: read-out: Activity
CCRF-CEM = assay: Growth inhibition of human CCRF-CEM cells assessed as cell growth at 10^-7 M incubated for 48 hrs by sulforhodamine B assay relative to control; details: read-out: Activity
UACC-257 = assay: Cytotoxicity against human UACC257 cells after 48 hrs by SRB assay; details: UACC-257, 48 h
SF-268 = assay: Cytotoxicity against human SF268 cells after 48 hrs by SRB assay; details: SF-268, 48 h
DU-145 [2] = assay: Growth inhibition of human DU145 cells assessed as cell growth at 10^-8 M incubated for 48 hrs by sulforhodamine B assay relative to control; details: DU-145, 48 h, read-out: Activity
ACHN [3] = assay: Growth inhibition of human ACHN cells assessed as cell growth at 10^-4 M incubated for 48 hrs by sulforhodamine B assay relative to control; details: read-out: Activity
NCI-H23 = assay: Growth inhibition of human NCI-H23 cells assessed as cell growth at 10^-8 M incubated for 48 hrs by sulforhodamine B assay relative to control; details: NCI-H23, 48 h, read-out: Activity
SK-MEL-2 = assay: Growth inhibition of human SK-MEL-2 cells assessed as cell growth at 10^-8 M incubated for 48 hrs by sulforhodamine B assay relative to control; details: SK-MEL-2, 48 h, read-out: Activity
PC-3 = assay: Growth inhibition of human PC3 cells assessed as cell growth at 10^-8 M incubated for 48 hrs by sulforhodamine B assay relative to control; details: PC-3, 48 h, read-out: Activity
786-0 = assay: Cytotoxicity against human 786-0 cells after 48 hrs by SRB assay; details: 786-0, 48 h
LOX IMVI = assay: Growth inhibition of human LOXIMVI cells assessed as cell growth at 10^-8 M incubated for 48 hrs by sulforhodamine B assay relative to control; details: read-out: Activity
A498 = assay: Cytotoxicity against human A498 cells after 48 hrs by SRB assay; details: A498, 48 h
DU-145 [4] = assay: Growth inhibition of human DU145 cells assessed as cell growth at 10^-7 M incubated for 48 hrs by sulforhodamine B assay relative to control; details: DU-145, 48 h, read-out: Activity
SK-MEL-28 = assay: Growth inhibition of human SK-MEL-28 cells assessed as cell growth at 10^-8 M incubated for 48 hrs by sulforhodamine B assay relative to control; details: SK-MEL-28, 48 h, read-out: Activity
MOLT-4 = assay: Cytotoxicity against human MOLT4 cells after 48 hrs by SRB assay; details: MOLT-4, 48 h
M14 = assay: Growth inhibition of human M14 cells assessed as cell growth at 10^-6 M incubated for 48 hrs by sulforhodamine B assay relative to control; details: M14, 48 h, read-out: Activity
EKVX = assay: Growth inhibition of human EKVX cells assessed as cell growth at 10^-7 M incubated for 48 hrs by sulforhodamine B assay relative to control; details: read-out: Activity
MDA-MB-231 = assay: Growth inhibition of human MDA-MB-231 cells assessed as cell growth at 10^-7 M incubated for 48 hrs by sulforhodamine B assay relative to control; details: MDA-MB-231, 48 h, read-out: Activity
SW-620 = assay: Growth inhibition of human SW620 cells assessed as cell growth at 10^-8 M incubated for 48 hrs by sulforhodamine B assay relative to control; details: SW-620, 48 h, read-out: Activity
K562 = assay: Growth inhibition of human K562 cells assessed as cell growth at 10^-6 M incubated for 48 hrs by sulforhodamine B assay relative to control; details: K562, 48 h, read-out: Activity
HCT-15 [5] = assay: Growth inhibition of human HCT15 cells assessed as cell growth at 10^-5 M incubated for 48 hrs by sulforhodamine B assay relative to control; details: HCT-15, 48 h, read-out: Activity
COLO 205 = assay: Growth inhibition of human COLO205 cells assessed as cell growth at 10^-7 M incubated for 48 hrs by sulforhodamine B assay relative to control; details: COLO 205, 48 h, read-out: Activity
TK-10 = assay: Cytotoxicity against human TK10 cells after 48 hrs by SRB assay; details: TK-10, 48 h
UACC-62 = assay: Growth inhibition of human UACC62 cells assessed as cell growth at 10^-6 M incubated for 48 hrs by sulforhodamine B assay relative to control; details: UACC-62, 48 h, read-out: Activity
HCT-15 [6] = assay: Growth inhibition of human HCT15 cells assessed as cell growth at 10^-6 M incubated for 48 hrs by sulforhodamine B assay relative to control; details: HCT-15, 48 h, read-out: Activity
Hs-578T = assay: Growth inhibition of human Hs 578T cells assessed as cell growth at 10^-6 M incubated for 48 hrs by sulforhodamine B assay relative to control; details: read-out: Activity
[7] = read-out: LC50 (the source's name)

C#C[C@@]1(O)[C@@H](CO)O[C@@H](n2cc(Br)c3c(N)ncnc32)[C@@H]1O
growth at 0.1 µM (NCI-H460): 9 to 27% | growth at 0.01 µM (SNB-75): 73 to 89% | growth at 1 µM (SF-295): 24 to 36% | growth at 0.01 µM (ACHN [1]): 97% | growth at 0.1 µM (CCRF-CEM): 58 to 83% | GI50 (UACC-257; read-out: GI50): 2820 to 5900 nM | CC50 (UACC-257; [7]): > 100000 nM | TGI (UACC-257; read-out: TGI): 49200 to 77000 nM | GI50 (SF-268; read-out: GI50): 467 to 498 nM | CC50 (SF-268; [7]): > 100000 nM | TGI (SF-268; read-out: TGI): 33200 to 80600 nM | growth at 0.01 µM (DU-145 [2]): 98 to 100% | growth at 100 µM (ACHN [3]): 7% | growth at 0.01 µM (NCI-H23): 90 to 91% | growth at 0.01 µM (SK-MEL-2): 96 to 106% | growth at 0.01 µM (PC-3): 86 to 92% | GI50 (786-0; read-out: GI50): 164 to 351 nM | TGI (786-0; read-out: TGI): 593 to 1630 nM | growth at 0.01 µM (LOX IMVI): 76 to 94% | GI50 (A498; read-out: GI50): 185 to 280 nM | CC50 (A498; [7]): 940 to 4210 nM | TGI (A498; read-out: TGI): 417 to 828 nM | growth at 0.1 µM (DU-145 [4]): 38 to 58% | growth at 0.01 µM (SK-MEL-28): 93 to 96% | GI50 (MOLT-4; read-out: GI50): 70.8 to 178 nM | CC50 (MOLT-4; [7]): > 100000 nM | TGI (MOLT-4; read-out: TGI): 778 to 100000 nM | growth at 1 µM (M14): 20 to 24% | growth at 0.1 µM (EKVX): 60 to 74% | growth at 0.1 µM (MDA-MB-231): 36 to 71% | growth at 0.01 µM (SW-620): 81 to 89% | growth at 1 µM (K562): 7 to 10% | growth at 10 µM (HCT-15 [5]): 3% | growth at 0.1 µM (COLO 205): 24 to 69% | GI50 (TK-10; read-out: GI50): 411 to 481 nM | CC50 (TK-10; [7]): > 100000 nM | TGI (TK-10; read-out: TGI): 85800 to 100000 nM | growth at 1 µM (UACC-62): 21 to 23% | growth at 1 µM (HCT-15 [6]): 4 to 7% | growth at 1 µM (Hs-578T): 6 to 57%
